In US12370235B2, “Synthetic, non-natural antimicrobial peptides inspired by Staphylococcus auricularis delta toxin” (University of Saskatchewan, priority 2021, dated 2025):
Ends that are not written are not given here.

How the values were obtained:
C. albicans MYA-2876 = assay: MIC, YPD broth; format: cell-based, Candida albicans; conditions: Table 8
In short: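 Yeast cells were diluted in YPD broth, and 180 μl aliquots were mixed with 20 μl of peptide from 2-fold serial dilutions in flat-bottom 96-well microtitre plates. Wells receiving 20 μl sterile water served as controls. After standing incubation overnight at 37° C, the MIC was taken as the lowest peptide concentration with no visible microbial growth.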

[1] = tested on: Candida haemulonii AR 395; assay: MIC, YPD broth, CDC and FDA AR Candida isolate panel; format: cell-based; conditions: Table 9 below the line: only 200 or 100 μg/mL tested; values reported as 100 are ≤100 μg/mL
In short: (§1)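 Peptides of 95% purity were tested as 2-fold dilution series against cells adjusted to optical density […] in YPD broth. Growth read after overnight static incubation at 37 °C, with sterile water as control.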

[2] = tested on: Candida haemulonii AR 393; assay: as above; format: cell-based; conditions: Table 9 below the line: only 200 or 100 μg/mL tested; values reported as 100 are ≤100 μg/mL
In short: as §1

[3] = tested on: Candida duobushaemulonii AR 394; assay: as above; format: cell-based; conditions: Table 9 below the line: only 200 or 100 μg/mL tested; values reported as 100 are ≤100 μg/mL
In short: as §1

[4] = tested on: Candida duobushaemulonii AR 392; assay: as above; format: cell-based; conditions: Table 9 below the line: only 200 or 100 μg/mL tested; values reported as 100 are ≤100 μg/mL
In short: as §1

[5] = tested on: Saccharomyces cerevisiae AR 400; assay: as above; format: cell-based; conditions: Table 9 below the line: only 200 or 100 μg/mL tested; values reported as 100 are ≤100 μg/mL
In short: as §1

Kodamae ohmeri AR 396 = assay: as above; format: cell-based; conditions: Table 9 below the line: only 200 or 100 μg/mL tested; values reported as 100 are ≤100 μg/mL
In short: as §1

[6] = tested on: Saccharomyces cerevisiae AR 399; assay: as above; format: cell-based; conditions: Table 9 below the line: only 200 or 100 μg/mL tested; values reported as 100 are ≤100 μg/mL
In short: as §1

[7] = tested on: Candida lusitaniae AR 398; assay: as above; format: cell-based; conditions: Table 9 below the line: only 200 or 100 μg/mL tested; values reported as 100 are ≤100 μg/mL
In short: as §1

Candida krusei AR 397 = assay: as above; format: cell-based; conditions: Table 9 below the line: only 200 or 100 μg/mL tested; values reported as 100 are ≤100 μg/mL
In short: as §1

[8] = tested on: Candida duobushaemulonii AR 391; assay: as above; format: cell-based; conditions: Table 9 below the line: only 200 or 100 μg/mL tested; values reported as 100 are ≤100 μg/mL
In short: as §1

[9] = tested on: S. aureus ATCC BAA-42 (MRSA SCCmec type VI); assay: MIC, broth dilution; format: cell-based, Staphylococcus aureus; conditions: Table 5; STIP3 variants, highest concentration 100 μg/mL
In short: (§2)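 Peptides of 95% purity tested as 2-fold dilution series against bacteria diluted to OD 6×10^−4 in cation-adjusted Mueller Hinton broth. Standing cultures incubated overnight at 37° C; MIC is the lowest concentration with no visible growth.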

[10] = tested on: S. aureus ATCC BAA-1683 (MRSA SCCmec type IV); assay: MIC, broth dilution; format: cell-based, Staphylococcus aureus; conditions: Table 5; STIP3 variants, highest concentration 100 μg/mL
In short: as §2

S. aureus ATCC 29213 = assay: MIC, broth dilution; format: cell-based, Staphylococcus aureus; conditions: Table 5; STIP3 variants, highest concentration 100 μg/mL
In short: as §2

[11] = tested on: S. aureus ATCC BAA-2094 (MRSA SCCmec type V); assay: MIC, broth dilution; format: cell-based, Staphylococcus aureus; conditions: Table 5; STIP3 variants, highest concentration 100 μg/mL
In short: as §2

[12] = tested on: S. aureus ATCC BAA-2313 (MRSA SCCmec type XI); assay: MIC, broth dilution; format: cell-based, Staphylococcus aureus; conditions: Table 5; STIP3 variants, highest concentration 100 μg/mL
In short: as §2

[13] = tested on: S. aureus ATCC BAA-44 (MRSA SCCmec type I); assay: MIC, broth dilution; format: cell-based, Staphylococcus aureus; conditions: Table 5; STIP3 variants, highest concentration 100 μg/mL
In short: as §2

[14] = tested on: S. aureus ATCC BAA-41 (MRSA SCCmec type II); assay: MIC, broth dilution; format: cell-based, Staphylococcus aureus; conditions: Table 5; STIP3 variants, highest concentration 100 μg/mL
In short: as §2

[15] = tested on: S. aureus ATCC 33592 (MRSA SCCmec type III); assay: MIC, broth dilution; format: cell-based, Staphylococcus aureus; conditions: Table 5; STIP3 variants, highest concentration 100 μg/mL
In short: as §2

[16] = tested on: Mannheimia haemolytica ATCC 33393; assay: MIC, broth dilution; format: cell-based; conditions: Table 11; highest concentration 25 μg/mL
In short: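 Read-out is the lowest peptide concentration showing no growth after an overnight standing culture at 37 °C. Two-fold serial dilutions of 95%-pure peptide were tested against M. haemolytica ATCC 33393 at OD 6×10^−4 in cation-adjusted MH broth.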

Sequence	MIC C. albicans MYA-2876 (C. albicans MYA-2876)	MIC (μg/mL) Candida haemulonii AR 395 [1]	MIC (μg/mL) Candida haemulonii AR 393 [2]	MIC (μg/mL) Candida duobushaemulonii AR 394 [3]	MIC (μg/mL) Candida duobushaemulonii AR 392 [4]	MIC (μg/mL) Saccharomyces cerevisiae AR 400 [5] [µg/mL]	MIC (μg/mL) Kodamae ohmeri AR 396 (Kodamae ohmeri AR 396)	MIC (μg/mL) Saccharomyces cerevisiae AR 399 [6]	MIC (μg/mL) Candida lusitaniae AR 398 [7]	MIC (μg/mL) Candida krusei AR 397 (Candida krusei AR 397)	MIC (μg/mL) Candida duobushaemulonii AR 391 [8]	MIC S. aureus ATCC BAA 42 (VI) [9] [µg/mL]	MIC S. aureus ATCC BAA 1683 (IV) [10]	MIC S. aureus ATCC 29213 (S. aureus ATCC 29213) [µg/mL]	MIC S. aureus ATCC BAA 2094 (V) [11] [µg/mL]	MIC S. aureus ATCC BAA 2313 (XI) [12] [µg/mL]	MIC S. aureus ATCC BAA 44 (I) [13] [µg/mL]	MIC S. aureus ATCC BAA 41 (II) [14] [µg/mL]	MIC S. aureus ATCC 33592 (III) [15] [µg/mL]	MIC (μg/mL) M. haemolytica [16]
TVGGLVKWILDWVKKFA [STIP3-10, TVGGLVKWILDWVKKFA]	50 µg/mL	> (values below the line were determined using two concentrations of peptide 200 or 100 μg/mL)	> (values below the line were determined using two concentrations of peptide 200 or 100 μg/mL)	> (values below the line were determined using two concentrations of peptide 200 or 100 μg/mL)	> (values below the line were determined using two concentrations of peptide 200 or 100 μg/mL)	≤ 100	> (values below the line were determined using two concentrations of peptide 200 or 100 μg/mL)	> (values below the line were determined using two concentrations of peptide 200 or 100 μg/mL)	> (values below the line were determined using two concentrations of peptide 200 or 100 μg/mL)	> (values below the line were determined using two concentrations of peptide 200 or 100 μg/mL)	> (values below the line were determined using two concentrations of peptide 200 or 100 μg/mL)	25	> (no inhibition was observed at the highest concentration of peptide tested: 100 μg/mL for the STIP3 variants)	100	100	50	200	100	100	> (> symbol indicates that no inhibition was observed at the highest concentration of peptide tested: 25 μg/mL)
TVGGLVKWILKAVKKFA [STIP3-13, TVGGLVKWILKAVKKFA]	50 µg/mL	> (values below the line were determined using two concentrations of peptide 200 or 100 μg/mL)	> (values below the line were determined using two concentrations of peptide 200 or 100 μg/mL)	≤ 100 µg/mL	≤ 100 µg/mL	≤ 100	> (values below the line were determined using two concentrations of peptide 200 or 100 μg/mL)	≤ 100 µg/mL	≤ 100 µg/mL	≤ 100 µg/mL	≤ 100 µg/mL	25	25 µg/mL	25	25	25	25	12.5	25	12.5 µg/mL
TVGGLVKWILNTVKKFA [STIP3-4, TVGGLVKWILNTVKKFA]	12.5 µg/mL	> (values below the line were determined using two concentrations of peptide 200 or 100 μg/mL)	> (values below the line were determined using two concentrations of peptide 200 or 100 μg/mL)	> (values below the line were determined using two concentrations of peptide 200 or 100 μg/mL)	> (values below the line were determined using two concentrations of peptide 200 or 100 μg/mL)	≤ 100	> (values below the line were determined using two concentrations of peptide 200 or 100 μg/mL)	≤ 100 µg/mL	≤ 100 µg/mL	≤ 100 µg/mL	> (values below the line were determined using two concentrations of peptide 200 or 100 μg/mL)	50	100 µg/mL	100	50	100	50	50	50	25 µg/mL
TVGVLVKWILDTVKKFA [STIP3-8, TVGVLVKWILDTVKKFA]	> (> symbol indicates that no inhibition was observed at the highest concentration of peptide tested: 100 μg/mL)	> (values below the line were determined using two concentrations of peptide 200 or 100 μg/mL)	> (values below the line were determined using two concentrations of peptide 200 or 100 μg/mL)	> (values below the line were determined using two concentrations of peptide 200 or 100 μg/mL)	> (values below the line were determined using two concentrations of peptide 200 or 100 μg/mL)	≤ 100	> (values below the line were determined using two concentrations of peptide 200 or 100 μg/mL)	≤ 100 µg/mL	180 µg/mL	≤ 100 µg/mL	> (values below the line were determined using two concentrations of peptide 200 or 100 μg/mL)	100	> (no inhibition was observed at the highest concentration of peptide tested: 100 μg/mL for the STIP3 variants)	100	100	100	100	100	100	> (> symbol indicates that no inhibition was observed at the highest concentration of peptide tested: 25 μg/mL)
